Values of other authors, collected in publication PMC2791716 (Biotechnology and bioengineering, 2009).
Where two headings read alike, the source gives them in different places.

What was measured:
[1] = no reference given
[2] = test system: cell adhesion to laminin-1; conditions: ref Nakahara et al. 1996

Row | Compound | minimum effective therapeutic concentration ([1]; systemic delivery) | minimum effective therapeutic concentration ([1]; systemic vascular concentration, converted from 50mg/kg) | inhibition of cell adhesion to laminin-1 [2]
1 | COc1cccc2c1C(=O)c1c(O)c3c(c(O)c1C2=O)C[C@@](O)(C(=O)CO)C[C@@H]3O[C@H]1C[C@H](N)[C@H](O)[C@H](C)O1 [doxorubicin] | 50 mg/kg | approximately 90 μM | –
2 | TWYKIAFQRNRK | – | – | 90%
